This assay has as its system MV-4-11 cells. In words: Gene expression microarray analysis (Affymetrix PrimeView) and GSEA. It is filed as cell-based, human. Further details: RFU PODN (11730768_x_at) / Fold change /veh PODN (11730768_x_at) / RFU LINC00158 (11744669_a_at) / Fold change /veh LINC00158 (11744669_a_at) / RFU DUSP10 (11751237_a_at) / Fold change /veh DUSP10 (11751237_a_at) / RFU ID3 (11757404_x_at) / Fold change /veh ID3 (11757404_x_at) / RFU PLEKHG5 (11737974_s_at) / Fold change /veh PLEKHG5 (11737974_s_at) / RFU LRRC4B (11730491_at) / Fold change /veh LRRC4B (11730491_at) / RFU GIMAP4 (11747438_a_at) / Fold change /veh GIMAP4 (11747438_a_at) / RFU KRT8 (11758183_x_at) / Fold change /veh KRT8 (11758183_x_at) / RFU CNN1 (11734310_a_at) / Fold change /veh CNN1 (11734310_a_at) / RFU VPS37D (11726825_at) / Fold change /veh VPS37D (11726825_at) / RFU C10orf10 (11716522_x_at) / Fold change /veh C10orf10 (11716522_x_at) / RFU KIR2DL2 /// KIR2DL4 /// KIR2DL5A /// KIR2DL5B /// KIR2DS1 /// KIR2DS2 /// KIR2DS3 /// KIR2DS4 /// KIR3DL3 /// KIR3DL3 /// KIR3DS1 (11738374_at) / Fold change /veh KIR2DL2 /// KIR2DL4 /// KIR2DL5A /// KIR2DL5B /// KIR2DS1 /// KIR2DS2 /// KIR2DS3 /// KIR2DS4 /// KIR3DL3 /// KIR3DL3 /// KIR3DS1 (11738374_at) / RFU C1QL1 (11718748_at) / Fold change /veh C1QL1 (11718748_at) / RFU TMPRSS4 (11747572_a_at) / Fold change /veh TMPRSS4 (11747572_a_at) / RFU HAMP (11756126_x_at) / Fold change /veh HAMP (11756126_x_at) / RFU RNFT2 (11725882_a_at) / Fold change /veh RNFT2 (11725882_a_at) / RFU NR4A2 (11747474_a_at) / Fold change /veh NR4A2 (11747474_a_at) / RFU ABCC12 (11746883_a_at) / Fold change /veh ABCC12 (11746883_a_at) / RFU TMEM136 (11760407_x_at) / Fold change /veh TMEM136 (11760407_x_at) / RFU CLDN22 /// WWC2 (11732394_at) / Fold change /veh CLDN22 /// WWC2 (11732394_at) / RFU HLA-DPB1 (11760878_x_at) / Fold change /veh HLA-DPB1 (11760878_x_at) / RFU SPINT1 (11716480_a_at) / Fold change /veh SPINT1 (11716480_a_at) / RFU GAP43 (11754022_s_at) / Fold change /veh GAP43 (11754022_s_at) / RFU A4GNT (11735810_at) / Fold change /veh A4GNT (11735810_at) / RFU PRB3 (11715151_x_at) / Fold change /veh PRB3 (11715151_x_at) / RFU TUBB4B (11761932_at) / Fold change /veh TUBB4B (11761932_at) / RFU CAPN14 (11732068_a_at) / Fold change /veh CAPN14 (11732068_a_at) / RFU TMCC2 (11721928_a_at) / Fold change /veh TMCC2 (11721928_a_at) / RFU IRGQ (11745062_a_at) / Fold change /veh IRGQ (11745062_a_at) / RFU FAM174B (11720279_a_at) / Fold change /veh FAM174B (11720279_a_at) / RFU TMPRSS4 (11748680_a_at) / Fold change /veh TMPRSS4 (11748680_a_at) / RFU FAM212B (11763350_a_at) / Fold change /veh FAM212B (11763350_a_at) / RFU PLEKHG5 (11743358_a_at) / Fold change /veh PLEKHG5 (11743358_a_at) / RFU ZSCAN30 (11745921_a_at) / Fold change /veh ZSCAN30 (11745921_a_at) / RFU CMKLR1 (11741424_a_at) / Fold change /veh CMKLR1 (11741424_a_at) / RFU LOC101060620 /// MAPK8IP1 (11723275_at) / Fold change /veh LOC101060620 /// MAPK8IP1 (11723275_at) / RFU SPTSSB (11747773_x_at) / Fold change /veh SPTSSB (11747773_x_at) / RFU PRSS12 (11739890_at) / Fold change /veh PRSS12 (11739890_at) / RFU BIN1 (11741810_x_at) / Fold change /veh BIN1 (11741810_x_at) / RFU WNT11 (11732464_a_at) / Fold change /veh WNT11 (11732464_a_at) / RFU C10orf10 (11716521_a_at) / Fold change /veh C10orf10 (11716521_a_at) / RFU C5orf56 (11738089_at) / Fold change /veh C5orf56 (11738089_at) / RFU CYB561 (11721691_x_at) / Fold change /veh CYB561 (11721691_x_at) / RFU ANKRD19P (11752326_a_at) / Fold change /veh ANKRD19P (11752326_a_at) / RFU OR2T12 /// OR2T33 /// OR2T8 (11738714_s_at) / Fold change /veh OR2T12 /// OR2T33 /// OR2T8 (11738714_s_at) / RFU VCAN (11748164_a_at) / Fold change /veh VCAN (11748164_a_at) / RFU JSRP1 (11732532_at) / Fold change /veh JSRP1 (11732532_at) / RFU KRTAP10-11 (11738290_x_at) / Fold change /veh KRTAP10-11 (11738290_x_at) / RFU MYO3A (11730013_a_at) / Fold change /veh MYO3A (11730013_a_at) / RFU EBF3 (11725865_a_at) / Fold change /veh EBF3 (11725865_a_at) / RFU CAMK2N1 (11719241_x_at) / Fold change /veh CAMK2N1 (11719241_x_at) / RFU C5orf56 (11738088_a_at) / Fold change /veh C5orf56 (11738088_a_at) / RFU OLFML3 (11715873_a_at) / Fold change /veh OLFML3 (11715873_a_at) / RFU LOC100653217 /// NTM (11731650_a_at) / Fold change /veh LOC100653217 /// NTM (11731650_a_at) / RFU MAPK11 (11762145_a_at) / Fold change /veh MAPK11 (11762145_a_at) / RFU FIZ1 (11724087_x_at) / Fold change /veh FIZ1 (11724087_x_at) / RFU OASL (11726364_x_at) / Fold change /veh OASL (11726364_x_at) / RFU SOX15 (11748057_x_at) / Fold change /veh SOX15 (11748057_x_at) / RFU CD79A (11719716_a_at) / Fold change /veh CD79A (11719716_a_at) / RFU HIST1H1D (11736915_at) / Fold change /veh HIST1H1D (11736915_at) / RFU CASKIN2 (11723855_a_at) / Fold change /veh CASKIN2 (11723855_a_at) / RFU LOC730098 (11760151_x_at) / Fold change /veh LOC730098 (11760151_x_at) / RFU OR4N2 (11742367_at) / Fold change /veh OR4N2 (11742367_at) / RFU PRRT2 (11749266_a_at) / Fold change /veh PRRT2 (11749266_a_at) / RFU SNX32 (11753110_a_at) / Fold change /veh SNX32 (11753110_a_at) / RFU CDHR5 (11726645_a_at) / Fold change /veh CDHR5 (11726645_a_at) / RFU RCAN1 (11760418_a_at) / Fold change /veh RCAN1 (11760418_a_at) / RFU FAM167A (11723789_a_at) / Fold change /veh FAM167A (11723789_a_at) / RFU FAM26E (11764081_at) / Fold change /veh FAM26E (11764081_at) / RFU ISYNA1 (11749810_s_at) / Fold change /veh ISYNA1 (11749810_s_at) / RFU ACY1 (11761880_at) / Fold change /veh ACY1 (11761880_at) / RFU 11764098_at / Fold change /veh 11764098_at / RFU SAMD14 (11745864_x_at) / Fold change /veh SAMD14 (11745864_x_at) / RFU NPB (11741838_a_at) / Fold change /veh NPB (11741838_a_at) / RFU TMPRSS6 (11731388_a_at) / Fold change /veh TMPRSS6 (11731388_a_at) / RFU KRTAP10-2 (11738614_at) / Fold change /veh KRTAP10-2 (11738614_at) / RFU ARHGAP8 /// PRR5-ARHGAP8 (11727945_x_at) / Fold change /veh ARHGAP8 /// PRR5-ARHGAP8 (11727945_x_at) / RFU KRTAP5-7 /// NADSYN1 (11734609_at) / Fold change /veh KRTAP5-7 /// NADSYN1 (11734609_at) / RFU RASL12 (11751679_a_at) / Fold change /veh RASL12 (11751679_a_at) / RFU CDKN2B (11736163_a_at) / Fold change /veh CDKN2B (11736163_a_at) / RFU PRF1 (11729649_at) / Fold change /veh PRF1 (11729649_at) / RFU, ZNF638 /// ZNF638-IT1 / Fold change vs veh, ZNF638 /// ZNF638-IT1 / RFU, PANK3 / Fold change vs veh, PANK3 / RFU, SH3YL1 / Fold change vs veh, SH3YL1 / RFU, ZEB2 / Fold change vs veh, ZEB2 / RFU, NRIP1 / Fold change vs veh, NRIP1 / RFU, PTTG1IP / Fold change vs veh, PTTG1IP / RFU, CAPN2 / Fold change vs veh, CAPN2 / RFU, MED14 / Fold change vs veh, MED14 / RFU, SNORA58 / Fold change vs veh, SNORA58 / RFU, C1orf63 / Fold change vs veh, C1orf63 / RFU, LRRFIP1 / Fold change vs veh, LRRFIP1 / RFU, NDUFAF7 / Fold change vs veh, NDUFAF7 / RFU, SLC12A2 / Fold change vs veh, SLC12A2 / RFU, IBTK / Fold change vs veh, IBTK / RFU, ESF1 / Fold change vs veh, ESF1 / Fold change vs veh, TMEM50B / RFU, TAOK1 / Fold change vs veh, TAOK1 / RFU, ACBD3 / Fold change vs veh, ACBD3 / RFU, TMA16 / Fold change vs veh, TMA16 / RFU, RWDD3 / Fold change vs veh, RWDD3 / RFU, BCAT1 / Fold change vs veh, BCAT1 / RFU, EDEM3 / Fold change vs veh, EDEM3 / RFU, TMEM33 / Fold change vs veh, TMEM33 / RFU, WDR75 / Fold change vs veh, WDR75 / RFU, AHCTF1 / Fold change vs veh, AHCTF1 / RFU, TFRC / Fold change vs veh, TFRC / RFU, ZDHHC17 / Fold change vs veh, ZDHHC17 / RFU, NOM1 / Fold change vs veh, NOM1 / RFU, ARL8B / Fold change vs veh, ARL8B / RFU, ZBTB11 / Fold change vs veh, ZBTB11 / RFU, TAMM41 / Fold change vs veh, TAMM41 / RFU, KIAA1704 /// LOC100996395 / Fold change vs veh, KIAA1704 /// LOC100996395 / RFU, ING1 / Fold change vs veh, ING1 / RFU, TRMT61B / Fold change vs veh, TRMT61B / RFU, FUBP3 / Fold change vs veh, FUBP3 / RFU, TP53 / Fold change vs veh, TP53 / RFU, TNKS2 / Fold change vs veh, TNKS2 / RFU, ZFP14 / Fold change vs veh, ZFP14 / RFU, ACTR2 / Fold change vs veh, ACTR2 / RFU, PPP3R1 / Fold change vs veh, PPP3R1 / RFU, PIK3R1 / Fold change vs veh, PIK3R1 / RFU, HNRNPA1 / Fold change vs veh, HNRNPA1 / RFU, RNF170 / Fold change vs veh, RNF170 / RFU, ZNF28 / Fold change vs veh, ZNF28 / RFU, RNGTT / Fold change vs veh, RNGTT / RFU, OGT / Fold change vs veh, OGT / RFU, BRD1 / Fold change vs veh, BRD1 / RFU, MARS / Fold change vs veh, MARS / RFU, ZNF655 / Fold change vs veh, ZNF655 / RFU, FAHD1 / Fold change vs veh, FAHD1 / RFU, BDP1 / Fold change vs veh, BDP1 / RFU, LRRCC1 / Fold change vs veh, LRRCC1 / RFU, ARID1A / Fold change vs veh, ARID1A / RFU, ZNF146 / Fold change vs veh, ZNF146 / RFU, ZNF330 / Fold change vs veh, ZNF330 / RFU, GPN3 / Fold change vs veh, GPN3 / RFU, C9orf123 / Fold change vs veh, C9orf123 / RFU, N4BP2L2 / Fold change vs veh, N4BP2L2 / RFU, ARFIP1 / Fold change vs veh, ARFIP1 / RFU, FAM179B / Fold change vs veh, FAM179B / RFU, BCL10 / Fold change vs veh, BCL10 / RFU, UHRF1BP1L / Fold change vs veh, UHRF1BP1L / RFU, BET1 / Fold change vs veh, BET1 / RFU, CNOT2 / Fold change vs veh, CNOT2 / RFU, ZNF268 / Fold change vs veh, ZNF268 / Fold change vs veh, ZNF507 / RFU, DGCR2 / Fold change vs veh, DGCR2 / RFU, WDSUB1 / Fold change vs veh, WDSUB1 / Fold change vs veh, HSP90B1 /// MIR3652 / RFU, ADSS / Fold change vs veh, ADSS / RFU, GK / Fold change vs veh, GK / RFU, ZNF148 / Fold change vs veh, ZNF148 / RFU, TAF9 / Fold change vs veh, TAF9 / RFU, SLC1A5 / Fold change vs veh, SLC1A5 / RFU, SLMO2 / Fold change vs veh, SLMO2 / RFU, ABCC4 / Fold change vs veh, ABCC4 / RFU, LOC101060439 /// RAP1B / Fold change vs veh, LOC101060439 /// RAP1B / RFU, RFX7 / Fold change vs veh, RFX7 / RFU, GTPBP10 / Fold change vs veh, GTPBP10 / RFU, CNEP1R1 / Fold change vs veh, CNEP1R1 / RFU, BIVM-ERCC5 /// ERCC5 / Fold change vs veh, BIVM-ERCC5 /// ERCC5 / RFU, ILF3 / Fold change vs veh, ILF3 / RFU 11762660_at / Fold change /veh 11762660_at / RFU VCAN (11757783_s_at) / Fold change /veh VCAN (11757783_s_at) / RFU DDX43 (11728927_at) / Fold change /veh DDX43 (11728927_at) / RFU KRT8 (11758188_x_at) / Fold change /veh KRT8 (11758188_x_at) / RFU NKD1 (11759106_at) / Fold change /veh NKD1 (11759106_at) / RFU SRD5A1 (11742802_a_at) / Fold change /veh SRD5A1 (11742802_a_at) / RFU TPSAB1 /// TPSB2 (11721975_s_at) / Fold change /veh TPSAB1 /// TPSB2 (11721975_s_at) / RFU GSTM3 (11746129_a_at) / Fold change /veh GSTM3 (11746129_a_at) / RFU IL23R (11737362_x_at) / Fold change /veh IL23R (11737362_x_at) / RFU TMEM51 (11727254_a_at) / Fold change /veh TMEM51 (11727254_a_at) / RFU PIWIL2 (11732686_x_at) / Fold change /veh PIWIL2 (11732686_x_at) / RFU ORM1 (11744905_x_at) / Fold change /veh ORM1 (11744905_x_at) / RFU CCDC152 (11743942_at) / Fold change /veh CCDC152 (11743942_at) / RFU ECM1 (11717891_a_at) / Fold change /veh ECM1 (11717891_a_at) / RFU IL23R (11748794_a_at) / Fold change /veh IL23R (11748794_a_at) / RFU TNFAIP8L3 (11732012_x_at) / Fold change /veh TNFAIP8L3 (11732012_x_at) / RFU MBOAT4 (11741988_at) / Fold change /veh MBOAT4 (11741988_at) / RFU 11764193_at / Fold change /veh 11764193_at / RFU TMEM53 (11763286_at) / Fold change /veh TMEM53 (11763286_at) / RFU MAGEB2 (11727129_at) / Fold change /veh MAGEB2 (11727129_at) / RFU TMEM200A (11744735_a_at) / Fold change /veh TMEM200A (11744735_a_at) / RFU CCDC152 (11751479_a_at) / Fold change /veh CCDC152 (11751479_a_at) / RFU FAM211A (11726209_a_at) / Fold change /veh FAM211A (11726209_a_at) / RFU RGS16 (11746705_a_at) / Fold change /veh RGS16 (11746705_a_at) / RFU VCAN (11755009_s_at) / Fold change /veh VCAN (11755009_s_at) / RFU RHOB (11743442_s_at) / Fold change /veh RHOB (11743442_s_at) / RFU RGS16 (11720943_a_at) / Fold change /veh RGS16 (11720943_a_at) / RFU RGS16 (11720944_at) / Fold change /veh RGS16 (11720944_at) / RFU, VPS4B / Fold change vs veh, VPS4B / RFU, CREB1 / Fold change vs veh, CREB1 / RFU, DNAJC13 / Fold change vs veh, DNAJC13 / RFU, GNAQ / Fold change vs veh, GNAQ / RFU, CDK5R1 / Fold change vs veh, CDK5R1 / RFU, ZRANB3 / Fold change vs veh, ZRANB3 / RFU, CUL4A / Fold change vs veh, CUL4A / RFU, CCNY / Fold change vs veh, CCNY / RFU, UFL1 / Fold change vs veh, UFL1 / RFU, COG3 / Fold change vs veh, COG3 / RFU, DIAPH2 / Fold change vs veh, DIAPH2 / RFU, SKA2 / Fold change vs veh, SKA2 / RFU, AFF3 / Fold change vs veh, AFF3 / RFU, LMF1 / Fold change vs veh, LMF1 / RFU, IPO11 / Fold change vs veh, IPO11 / RFU, DFFB / Fold change vs veh, DFFB / RFU, FOXP1 / Fold change vs veh, FOXP1 / RFU, CARD8 / Fold change vs veh, CARD8 / RFU, STRN3 / Fold change vs veh, STRN3 / RFU, ADK / Fold change vs veh, ADK / RFU, RASSF2 / Fold change vs veh, RASSF2 / RFU, WIPF1 / Fold change vs veh, WIPF1 / RFU, LARP1B / Fold change vs veh, LARP1B / RFU, RASA1 / Fold change vs veh, RASA1 / RFU, RB1 / Fold change vs veh, RB1 / RFU, PPFIA1 / Fold change vs veh, PPFIA1 / RFU, MAT2A / Fold change vs veh, MAT2A / RFU, CCT5 / Fold change vs veh, CCT5 / RFU, WDR92 / Fold change vs veh, WDR92 / RFU, CUX1 / Fold change vs veh, CUX1 / RFU, TTC7A / Fold change vs veh, TTC7A / RFU, TMEM135 / Fold change vs veh, TMEM135 / RFU, DEPTOR / Fold change vs veh, DEPTOR / RFU, CPM / Fold change vs veh, CPM / RFU, DNAJB6 / Fold change vs veh, DNAJB6 / RFU, CACNA2D3 / Fold change vs veh, CACNA2D3 / RFU, DTX4 / Fold change vs veh, DTX4 / RFU, TFCP2 / Fold change vs veh, TFCP2 / RFU, GMCL1 /// GMCL1P1 / Fold change vs veh, GMCL1 /// GMCL1P1 / RFU, AEBP2 / Fold change vs veh, AEBP2 / RFU, SNHG1 /// SNORD22 /// SNORD25 /// SNORD26 /// SNORD27 /// SNORD28 /// SNORD29 /// SNORD31 / Fold change vs veh, SNHG1 /// SNORD22 /// SNORD25 /// SNORD26 /// SNORD27 /// SNORD28 /// SNORD29 /// SNORD31 / Fold change (Aza/veh), C12orf56 (ProbeSet 11735607_a_at) / Fold change (ACY-1035/veh), C12orf56 (ProbeSet 11735607_a_at) / Fold change (Aza/veh), FGFR1OP (ProbeSet 11751329_s_at) / Fold change (ACY-1035/veh), FGFR1OP (ProbeSet 11751329_s_at) / Fold change (Aza/veh), VPS36 (ProbeSet 11739960_a_at) / Fold change (ACY-1035/veh), VPS36 (ProbeSet 11739960_a_at) / RFU SYPL1 (11715823_x_at) / Fold change /veh SYPL1 (11715823_x_at) / RFU IGFBP7 (11715501_s_at) / Fold change /veh IGFBP7 (11715501_s_at) / RFU REEP3 (11722064_at) / Fold change /veh REEP3 (11722064_at) / RFU IGLL1 (11728026_x_at) / Fold change /veh IGLL1 (11728026_x_at): dose or concentration left out as unconfirmed. The following applies: MV-4-11 cells, 48 hours.

The source of these data is PMC5218480 (PLoS ONE, 2017).

On to `Nc1ccc(-c2cccs2)cc1NC(=O)c1ccc2c(c1)cc(C1CC1)n2CCN1CCOCC1` [ACY-1035], for which the “Fold change /veh RASL12 (11751679_a_at)” value worked out at 1.18.
